assay: recombinant UMI read abundance after kanamycin selection (control-corrected) (log10(CPM+1)); higher = more efficient recombination; extreme values may be limits of the assay; sequences stand for … in AGTGCAGAGAAAATCGGCCAGTTTTCTCTGCCTGCAGTCCGCATGCCGTGGGACCCCTTGGGTTCTAACCTGTTGCCTAGATTTATGCAGCGGACTGCCTTTCTCCCAAAGTGATAAACCGG…AGGTTGGTTTCACT; site = the 11-nt donor
Method: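 Pooled E. coli donor-specificity screen for the IS621 bridge recombinase. Each library member carries a reprogrammed 11-nt donor and a full-length LE bridge RNA expressed in cis from the natural promoter, with a paired donor-binding loop (8-nt LDG + 4-nt RDG) and a target-binding loop fixed to T5. It is co-electroporated with a T5 target plasmid; recombinase is induced with 0.07 mM IPTG and recombinants are selected on kanamycin. UMIs are counted as CPM, averaged over two biological replicates and corrected by the unselected control. Molecule = full bridge RNA written as DNA, built from the T5 scaffold: LDG = donor specificity nt 1-8, RDG = reverse complement of nt 8-11.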
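Note: IS621 bridge recombinase in Escherichia coli cells against a fixed T5 target plasmid.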

In order of falling “recombinant UMI read abundance (log10)” value:
1. CGACGGTCATGGACCGGTTTTCCCGGTAATCCGTATTTGTC (site CGACGGTCTGA)  2.77
2. TGATAGACATGGACCGGTTTTCCCGGTAATCCGTATTTGCC (site TGATAGACTGG)  2.54
3. ATAGATACATGGACCGGTTTTCCCGGTAATCCGTATTTGCC (site ATAGATACTGG)  2.54
4. CAGTACACATGGACCGGTTTTCCCGGTAATCCGTATTTGCT (site CAGTACACTAG)  2.43
5. ATGTGGGCATGGACCGGTTTTCCCGGTAATCCGTATTTGTA (site ATGTGGGCTTA)  2.32
6. GTCATATCATGGACCGGTTTTCCCGGTAATCCGTATTTGTG (site GTCATATCTCA)  2.31
7. TAAGTTTCATGGACCGGTTTTCCCGGTAATCCGTATTTGGA (site TAAGTTTCTTC)  2.13
8. GTACCTTCATGGACCGGTTTTCCCGGTAATCCGTATTTGAC (site GTACCTTCTGT)  2.06
9. CGGTAGACATGGACCGGTTTTCCCGGTAATCCGTATTTGAG (site CGATAGACTCT)  2.01
10. GCGGAAACATGGACCGGTTTTCCCGGTAATCCGTATTTGCT (site GCGTAAACTAG)  1.86
11. GCTTGTTCATGGACCGGTTTTCCCGGTAATCCGTATTTGCT (site GCTTGTTCTAG)  1.84
12. AAACGAACATGGACCGGTTTTCCCGGTAATCCGTATTTGTC (site AAACGAACTGA)  1.58
13. TCAATTGCATGGACCGGTTTTCCCGGTAATCCGTATTTGCG (site TCAATTGCTCG)  1.52
14. CACTACGCATGGACCGGTTTTCCCGGTAATCCGTATTTGGA (site CACTACGCTTC)  1.41
15. AGTACTACATGGACCGGTTTTCCCGGTAATCCGTATTTGAC (site AGTACTACTGT)  1.28
16. TGACCGGCATGGACCGGTTTTCCCGGTAATCCGTATTTGGC (site TGACCGGCTGC)  1.25
17. TAGTTGACATGGACCGGTTTTCCCGGTAATCCGTATTTGCT (site TAATTGACTAG)  1.17
18. CTAATTTCATGGACCGGTTTTCCCGGTAATCCGTATTTGCC (site CTAATTTCTGG)  1.14
19. TTTGAAGCATGGACCGGTTTTCCCGGTAATCCGTATTTGCG (site TTTGAAGCTCG)  1.11
20. GTATTCGCATGGACCGGTTTTCCCGGTAATCCGTATTTGCG (site GTATTCGCTCG)  0.984
21. CTTCTCTCATGGACCGGTTTTCCCGGTAATCCGTATTTGTA (site CTACTCTCTTA)  0.967
22. GCGAAAACATGGACCGGTTTTCCCGGTAATCCGTATTTGCA (site GCGAAAACTTG)  0.929
23. GTGGCAACATGGACCGGTTTTCCCGGTAATCCGTATTTGTA (site GTGGCAACTTA)  0.85
24. CACCAGTCATGGACCGGTTTTCCCGGTAATCCGTATTTGAC (site CACCAGTCTGT)  0.85
25. GCCGATGCATGGACCGGTTTTCCCGGTAATCCGTATTTGGC (site GCCGATGCTGC)  0.846
26. TCAGATACATGGACCGGTTTTCCCGGTAATCCGTATTTGCG (site TCAGACACTCG)  0.812
27. CACTGGGCATGGACCGGTTTTCCCGGTAATCCGTATTTGGA (site CACTAGGCTTC)  0.812
28. ATTGTGCCATGGACCGGTTTTCCCGGTAATCCGTATTTGCA (site ATTGTGCCTTG)  0.682
29. CCCCAATCATGGACCGGTTTTCCCGGTAATCCGTATTTGTG (site CCCCAATCTCA)  0.678
30. GCAACATCATGGACCGGTTTTCCCGGTAATCCGTATTTGCC (site GCAACATCTGG)  0.611
31. CCAGGTTCATGGACCGGTTTTCCCGGTAATCCGTATTTGAT (site CCAGGTTCTAT)  0.602
32. AAGGGTCCATGGACCGGTTTTCCCGGTAATCCGTATTTGAG (site AAGGGTCCTCT)  0.405
33. TGATGAGCATGGACCGGTTTTCCCGGTAATCCGTATTTGGG (site TGATGAGCTCC)  0.403
34. AATTGGGCATGGACCGGTTTTCCCGGTAATCCGTATTTGAA (site AATTGGGCTTT)  0.399
35. CGGTATCCATGGACCGGTTTTCCCGGTAATCCGTATTTGCG (site CGGTATCCTCG)  0.378
36. AATAGAACATGGACCGGTTTTCCCGGTAATCCGTATTTGAG (site ATTAGAACTCT)  0.329
37. AAGCATGCATGGACCGGTTTTCCCGGTAATCCGTATTTGGG (site AAGCATGCTCC)  0.297
38. GAATGGCCATGGACCGGTTTTCCCGGTAATCCGTATTTGCA (site GAATCGCCTTG)  0.248
39. GTGGGCGCATGGACCGGTTTTCCCGGTAATCCGTATTTGGG (site GTGGGCGCTCC)  0.22
40. TAATGCTCATGGACCGGTTTTCCCGGTAATCCGTATTTGAA (site AAATGCTCTTT)  0.111
41. TAAAGTCCATGGACCGGTTTTCCCGGTAATCCGTATTTGTA (site TAAAGTCCTTT)  0.0573
42. AGCACCGCATGGACCGGTTTTCCCGGTAATCCGTATTTGGG (site AGCACCGCTCC)  0.0364
43. GAAGTCGCATGGACCGGTTTTCCCGGTAATCCGTATTTGCG (site GGAGTCGCTCG)  0.0249
44. GCGAGGCCATGGACCGGTTTTCCCGGTAATCCGTATTTGGG (site GCGACGCCTCC)  0.022
45. TTTGTGACATGGACCGGTTTTCCCGGTAATCCGTATTTGAG (site TTTGTGACTCT)  0.0187
46. CAATCGACATGGACCGGTTTTCCCGGTAATCCGTATTTGGG (site CATTCGACTCC)  0.0172
47. AGGTTCCCATGGACCGGTTTTCCCGGTAATCCGTATTTGCG (site AGGTTCCCTCA)  0.0159
48. CGATCAACATGGACCGGTTTTCCCGGTAATCCGTATTTGTT (site CGATCCACTAA)  0.0118
49. ACATATACATGGACCGGTTTTCCCGGTAATCCGTATTTGTG (site ACATTTACTCA)  0.0115
50. TTTGCGCCATGGACCGGTTTTCCCGGTAATCCGTATTTGCT (site TTTGCGTCTAG)  0.0103
51. TTCTCTTCATGGACCGGTTTTCCCGGTAATCCGTATTTGTG (site TTCTCTTCTCA)  0.00971
52. AACCGTCCATGGACCGGTTTTCCCGGTAATCCGTATTTGAT (site AACTGTCCTAT)  0.00892
53. GGCGTGGCATGGACCGGTTTTCCCGGTAATCCGTATTTGGT (site GGTGTGGCTAC)  0.00854
54. CCAGGTTCATGGACCGGTTTTCCCGGTAATCCGTATTTGAT (site CCAGGTCCTAT)  0.00776
55. ACATCTACATGGACCGGTTTTCCCGGTAATCCGTATTTGTG (site AGATCTACTCA)  0.00667
56. TTAGGACCATGGACCGGTTTTCCCGGTAATCCGTATTTGCA (site TTAGGACCTTG)  0.00659
57. CGTCTGGCATGGACCGGTTTTCCCGGTAATCCGTATTTGCT (site CGTGTGGCTAG)  0.00552
58. CGGGAGTCATGGACCGGTTTTCCCGGTAATCCGTATTTGCC (site CGGGCGTCTGG)  0
59. TGGCCGACATGGACCGGTTTTCCCGGTAATCCGTATTTGGC (site TGGCCGCCTGC)  0
60. CTTCTCTCATGGACCGGTTTTCCCGGTAATCCGTATTTGTA (site CTTCTTTCTTA)  0
61. CCCCACACATGGACCGGTTTTCCCGGTAATCCGTATTTGTA (site CCCCACACTGA)  0
62. TTTGGCCCATGGACCGGTTTTCCCGGTAATCCGTATTTGCC (site TTTGGCCCTGG)  0
63. CGGAATCCATGGACCGGTTTTCCCGGTAATCCGTATTTGTT (site CGGAATCCTAG)  0
64. TGATTAGCATGGACCGGTTTTCCCGGTAATCCGTATTTGGG (site TGATTAGCTCC)  0
65. AACGTGTCATGGACCGGTTTTCCCGGTAATCCGTATTTGAC (site AATGTGTCTGT)  0
66. CGTTTGGCATGGACCGGTTTTCCCGGTAATCCGTATTTGCT (site CGTTTTGCTAG)  0
67. CGATCCACATGGACCGGTTTTCCCGGTAATCCGTATTTGCT (site CGATCATCTAG)  0
68. TCGACCGCATGGACCGGTTTTCCCGGTAATCCGTATTTGCG (site TCCACCGCTCG)  0
69. GTTAGAGCATGGACCGGTTTTCCCGGTAATCCGTATTTGGC (site GTTAGACCTGC)  0
70. GACAAGCCATGGACCGGTTTTCCCGGTAATCCGTATTTGGT (site GACAAGCCTAC)  0
71. CTCAAGCCATGGACCGGTTTTCCCGGTAATCCGTATTTGAG (site CTCAAGCCTCT)  0
72. CCAGGTTCATGGACCGGTTTTCCCGGTAATCCGTATTTGAT (site CCAGGTGCTAT)  0
